Values after ≈ are worked out from the molar mass of the structure shown.
How the values were obtained:
[1] = tested on: Klebsiella pneumoniae; test: Antibacterial activity against Klebsiella pneumoniae by twofold serial dilution method; type: functional
[2] = tested on: Candida; test: Antifungal activity against Candida 51 by twofold serial dilution method; type: functional
[3] = tested on: Staphylococcus aureus; test: Antibacterial activity against Staphylococcus aureus by twofold serial dilution method; type: functional
[4] = tested on: Salmonella enterica; test: Antibacterial activity against Salmonella typhi by twofold serial dilution method; type: functional, Salmonella enterica subsp. enterica serovar Typhi
[5] = tested on: Candida albicans; test: Antifungal activity against Candida albicans by twofold serial dilution method; type: functional
[6] = tested on: Escherichia coli; test: Antibacterial activity against Escherichia coli by twofold serial dilution method; type: functional
[7] = tested on: Rhizopus; test: Antifungal activity against Rhizopus sp. by twofold serial dilution method; type: functional
[8] = tested on: Aspergillus flavus; test: Antifungal activity against Aspergillus flavus by twofold serial dilution method; type: functional
[9] = tested on: Aspergillus niger; test: Antifungal activity against Aspergillus niger by twofold serial dilution method; type: functional
[10] = tested on: Pseudomonas aeruginosa; test: Antibacterial activity against Pseudomonas aeruginosa by twofold serial dilution method; type: functional

Compound	MIC [1] [µg/mL]	MIC [2] [µg/mL]	MIC [3] [µg/mL]	MIC [4] [µg/mL]	MIC [5] [µg/mL]	MIC [6] [µg/mL]	MIC [7] [µg/mL]	MIC [8] [µg/mL]	MIC [9] [µg/mL]	MIC [10] [µg/mL]
Fc1ccc(C2NC(c3ccc(F)cc3)C3CCCC2C3=NOCc2ccccc2)cc1 (stereo unspecified)	50 (≈ 116 µM)	100 (≈ 231 µM)	100 (≈ 231 µM)	50 (≈ 116 µM)	25 (≈ 57.8 µM)	25 (≈ 57.8 µM)	50 (≈ 116 µM)	100 (≈ 231 µM)	50 (≈ 116 µM)	25 (≈ 57.8 µM)
COc1ccc(C2NC(c3ccc(OC)cc3)C3C(=NOCc4ccccc4)C2C(c2ccc(OC)cc2)NC3c2ccc(OC)cc2)cc1 (stereo unspecified)	100 (≈ 149 µM)	100 (≈ 149 µM)	25 (≈ 37.3 µM)		50 (≈ 74.6 µM)	50 (≈ 74.6 µM)	50 (≈ 74.6 µM)	50 (≈ 74.6 µM)	25 (≈ 37.3 µM)	12.5 (≈ 18.7 µM)
Fc1cccc(C2NC(c3cccc(F)c3)C3CCCC2C3=NOCc2ccccc2)c1 (stereo unspecified)	100 (≈ 231 µM)	200 (≈ 462 µM)	100 (≈ 231 µM)	100 (≈ 231 µM)	50 (≈ 116 µM)	25 (≈ 57.8 µM)	50 (≈ 116 µM)	100 (≈ 231 µM)	100 (≈ 231 µM)	25 (≈ 57.8 µM)
Clc1ccc(C2NC(c3ccc(Cl)cc3)C3C(=NOCc4ccccc4)C2C(c2ccc(Cl)cc2)NC3c2ccc(Cl)cc2)cc1 (stereo unspecified)	50 (≈ 72.7 µM)	50 (≈ 72.7 µM)	25 (≈ 36.4 µM)		12.5 (≈ 18.2 µM)	50 (≈ 72.7 µM)	25 (≈ 36.4 µM)	12.5 (≈ 18.2 µM)	25 (≈ 36.4 µM)	6.25 (≈ 9.09 µM)
c1ccc(CON=C2C3C(c4ccccc4)NC(c4ccccc4)C2C(c2ccccc2)NC3c2ccccc2)cc1 (stereo unspecified)	> 200	> 200	200 (≈ 364 µM)		100 (≈ 182 µM)	100 (≈ 182 µM)	200 (≈ 364 µM)	200 (≈ 364 µM)	100 (≈ 182 µM)	100 (≈ 182 µM)
C[C@@H]1[C@H](O)[C@@H](C)/C=C/C=C/C=C/C=C/C=C/C=C/C=C/[C@H](O[C@@H]2O[C@H](C)[C@@H](O)[C@H](N)[C@@H]2O)C[C@@H]2O[C@](O)(C[C@@H](O)C[C@@H](O)[C@H](O)CC[C@@H](O)C[C@@H](O)CC(=O)O[C@H]1C)C[C@H](O)[C@H]2C(=O)O [AMPHOTERICIN B]		25 (≈ 27.1 µM)			25 (≈ 27.1 µM)		25 (≈ 27.1 µM)	50 (≈ 54.1 µM)	50 (≈ 54.1 µM)	
Fc1ccc(C2NC(c3ccc(F)cc3)C3C(=NOCc4ccccc4)C2C(c2ccc(F)cc2)NC3c2ccc(F)cc2)cc1 (stereo unspecified)	25 (≈ 40.2 µM)	25 (≈ 40.2 µM)	12.5 (≈ 20.1 µM)		12.5 (≈ 20.1 µM)	12.5 (≈ 20.1 µM)	12.5 (≈ 20.1 µM)	50 (≈ 80.4 µM)	25 (≈ 40.2 µM)	6.25 (≈ 10.1 µM)
CN1C(c2ccccc2)C2CCCC(C2=NOCc2ccccc2)C1c1ccccc1 (stereo unspecified)	200 (≈ 487 µM)	200 (≈ 487 µM)	200 (≈ 487 µM)	100 (≈ 244 µM)	50 (≈ 122 µM)	100 (≈ 244 µM)	50 (≈ 122 µM)	> 200	200 (≈ 487 µM)	100 (≈ 244 µM)
Clc1ccc(C2NC(c3ccc(Cl)cc3)C3CCCC2C3=NOCc2ccccc2)cc1 (stereo unspecified)	100 (≈ 215 µM)	50 (≈ 107 µM)	25 (≈ 53.7 µM)	25 (≈ 53.7 µM)	25 (≈ 53.7 µM)	50 (≈ 107 µM)	12.5 (≈ 26.9 µM)	50 (≈ 107 µM)	25 (≈ 53.7 µM)	12.5 (≈ 26.9 µM)
COc1ccc(C2NC(c3ccc(OC)cc3)C3CCCC2C3=NOCc2ccccc2)cc1 (stereo unspecified)	100 (≈ 219 µM)	50 (≈ 110 µM)	100 (≈ 219 µM)	50 (≈ 110 µM)	50 (≈ 110 µM)	50 (≈ 110 µM)	50 (≈ 110 µM)	100 (≈ 219 µM)	100 (≈ 219 µM)	50 (≈ 110 µM)

Reference: ChEMBL document CHEMBL1153710, “Synthesis, stereochemistry and antimicrobial studies of novel oxime ethers of aza/diazabicycles” (2009)
